Results taken from patent publication US5719278A, “Tricyclic benzazepine vasopressin antagonists” (American Cyanamid Company, priority 1996, dated 1998).

What was measured:
[1] = biological target: T1, V1 Receptor Subtype in Human Platelet (Homo sapiens, UniProt P37288); assay: Binding to Vasopressin V1 Receptor Subtype in Human Platelet Membranes; details: *Binding to V1 Receptor Subtype in Human Platelet
T1 construct: from tissue; host or cells: human platelets (platelet rich plasma from Hudson Valley Blood Services)
Method: Radioligand Binding Experiments with Human Platelet Membranes
Platelet Source: Hudson Valley Blood Services, Westchester Medical Center, Valhalla, N.Y.
Frozen platelet rich plasma (PRP), received from the Hudson Valley Blood Services are thawed to room temperature. The tubes containing the PRP are centrifuged at 16,000×g for 10 min. at 4° C. and the supernatant fluid discarded. The platelets resuspended in an equal volume of 50.0 mM Tris.HCl, pH 7.5 containing 120 mM NaCl and 20.0 mM EDTA. The suspension is recentrifuged at 16,000×g for 10 min. This washing step is repeated one more time. The wash is discarded and the lysed pellets homogenized in low ionic strength buffer of Tris.HCl, 5.0 mM, pH 7.5 containing 5.0 mM EDTA. The homogenate is centrifuged at 39,000×g for 10 min. The resulting pellet is resuspended in Tris.HCl buffer, 70.0 mM, pH 7.5 and recentrifuged at 39,000×g for 10 min. The final pellet is resuspended in 50.0 mM Tris.HCl buffer pH 7.4 containing 120 mM NaCl and 5.0 mM HCl to give 1.0-2.0 mg protein per ml of suspension.
Binding to Vasopressin V1 Receptor Subtype in Human Platelet Membranes:
In wells of a 96 well format microtiter plate, add 100 μl of 50.0 mM Tris.HCl buffer containing 0.2% BSA and a mixture of protease inhibitors (aprotinin, leupeptin etc.). Then add 20 μl of [^3 H]Ligand: (Manning or Arg^8 Vasopressin), to give final concentrations ranging from 0.01 to 10.0 nM. Initiate the binding by adding 80.0 μl of platelet suspension (approx. 100 μg protein). Mix all reagents by pipetting the mixture up and down a few times. Non-specific binding is measured in the presence of 1.0 μM of unlabeled ligand (Manning or Arg^8 Vasopressin). Let the mixture stand undisturbed at room temperature for ninety (90) min. Upon this time, rapidly filter off the incubate under vacuum suction over GF/B filters, using a Brandel® Harvester. Determine the radioactivity caught on the filter disks by the addition of liquid scintillant and counting in a liquid scintillator

[2] = system: Vasopressin V2; assay: Vasopressin V2 Antagonist Activity in Conscious Hydrated Rats; type: in vivo, rat; details: 10 mg/kg orally, N = 2, AVP 0.4 μg/kg intraperitoneally; for Osmolality (mOsm/kg): urine
Method: Vasopressin V2 Antagonist Activity in Conscious Hyrdated Rats
Conscious hydrated rats are treated with compounds under study from 0.1 to 100 mg/kg orally or vehicle. Two to four rats are used for each compound. One hour later, arginine vasopressin (AVP, antidiuretic hormone, ADH) dissolved in peanut oil is administered at 0.4 μg/kg intraperitoneally. Two rats in each test would not receive arginine vasopressin but only the vehicle (peanut oil) to serve as water-loading control. Twenty minutes later each rat is given 30 mL/kg of deionized water orally by gavage and is placed individually in a metabolic cage equipped with a funnel and a graduated glass cylinder to collect urine for four hours. Urine volume is measured and osmolality analyzed by use of a Fiske One-Ten osmometer (Fiske Assoc., Norwood, Mass. U.S.A.). Urinary sodium, potassium, and chloride are analyzed by use of ion-specific electrodes in a Beckman E3(Electrolyte 3) Analyzer.
In the following results, […] and decreased osmolality relative to AVP-control indicates activity.

[3] = biological target: T2, Rat Hepatic V1 Receptors (Rattus norvegicus, UniProt P30560); assay: Binding Assay to Rat Hepatic V1 Receptors; details: Rat Hepatic V1 Receptors (no asterisk)
T2 construct: Rat liver plasma membranes expressing the vasopressin V1 receptor subtypes; from tissue; host or cells: rat liver plasma membranes
Method: Binding Assay to Rat Hepatic V1 Receptors
Rat liver plasma membranes expressing the vasopressin V1 receptor subtypes are isolated by sucrose density gradient according to the method described by Lesko et al., (1973). These membranes are quickly suspended in 50.0 mM Tris.HCl buffer, pH 7.4, containing 0.2% bovine serum albumin (BSA) and 0.1 mM phenylmethylsulfonylfluoride (PMSF) and kept frozen at -70° C. until used in subsequent binding experiments. For binding experiments, the following is added to the wells of a ninety-six well format microtiter plate: 100 μl of 100.0 mM Tris.HCl buffer containing 10.0 mM MgCl2, 0.2% heat inactivated BSA and a mixture of protease inhibitors: leupeptin, 1.0 mg %; aprotinin, 1.0 mg %, 1,10-phenanthroline,2.0 mg %; trypsin inhibitor, 10.0 mg % and 0.1 mM PMSF, 20.0 μl of [phenylalanyl-3,4,5-^3 H] vasopressin (S.A. 45.1 Ci/mmole) at 0.8 nM, and the reaction initiated by the addition of 80 μl of tissue membranes containing 20 μg of tissue protein. The plates are kept undisturbed on the bench top at room temperature for 120 min. to reach equilibrium. Non-specific samples are assayed in the presence of 0.1 μM of the unlabeled antagonist phenylalanylvasopressin, added in 20.0 μl volume to a final incubation volume of 200 μl. Upon completion of binding, the content of each well is filtered off, using a Brandel® cell Harvester (Gaithersburg, Md.). The radioactivity trapped on the filter disk by the ligand-receptor complex is assessed by liquid scintillation counting in a Packard LS Counter, with an efficiency of 65% for tritium. The data are analyzed for IC50 values by the LUNDON-2 program for competition (LUNDON SOFTWARE, Ohio).

T1 sequence (P37288 whole entry): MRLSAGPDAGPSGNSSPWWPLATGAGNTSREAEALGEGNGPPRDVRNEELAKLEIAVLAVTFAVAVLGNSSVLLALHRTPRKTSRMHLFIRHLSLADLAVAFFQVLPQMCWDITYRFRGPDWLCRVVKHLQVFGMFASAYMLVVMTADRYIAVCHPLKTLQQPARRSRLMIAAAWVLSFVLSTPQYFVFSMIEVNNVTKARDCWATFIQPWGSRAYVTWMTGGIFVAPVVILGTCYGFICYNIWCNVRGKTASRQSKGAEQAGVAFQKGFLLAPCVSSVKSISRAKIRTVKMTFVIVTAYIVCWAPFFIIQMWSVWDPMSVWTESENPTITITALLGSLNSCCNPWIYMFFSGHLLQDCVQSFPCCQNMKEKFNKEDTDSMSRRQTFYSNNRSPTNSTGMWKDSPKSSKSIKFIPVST
T2 sequence (P30560 whole entry): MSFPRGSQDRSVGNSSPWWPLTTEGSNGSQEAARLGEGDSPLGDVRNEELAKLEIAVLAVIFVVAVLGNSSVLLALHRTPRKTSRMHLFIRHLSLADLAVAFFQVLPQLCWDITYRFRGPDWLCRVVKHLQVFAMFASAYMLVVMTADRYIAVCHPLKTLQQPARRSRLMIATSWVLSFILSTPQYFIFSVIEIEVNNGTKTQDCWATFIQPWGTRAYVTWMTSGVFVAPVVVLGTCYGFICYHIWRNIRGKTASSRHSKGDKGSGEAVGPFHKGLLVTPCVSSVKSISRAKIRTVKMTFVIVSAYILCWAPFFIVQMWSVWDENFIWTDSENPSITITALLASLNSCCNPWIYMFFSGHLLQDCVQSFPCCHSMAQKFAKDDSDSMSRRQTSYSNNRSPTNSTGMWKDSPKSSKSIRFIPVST

SMILES | IC50 [1] [µM] | Urine Vol. (ml/4 hrs.) [2] [ml/4 hrs.] | Osmolality (mOsm/kg) [2] [mOsm/kg] | IC50 [3] [µM]
O=C(Nc1ccc(C(=O)N2CCc3cn[nH]c3-c3ncccc32)cc1)c1ccccc1-c1ccccc1 [Example 365, N-[4-[(4,5-Dihydropyrazolo[3,4-d]pyrido[3,2-b]azepin-6(1H)-yl)carbonyl]phenyl][1,1'-biphenyl]-2-carboxamide] | 0.101 | 2.6 | 251 | 
O=C(Nc1ccc(C(=O)N2CCc3cn[nH]c3-c3sccc32)cc1)c1ccc(F)cc1Cl [Example 1, N-[4-[(4,5-Dihydropyrazolo[3,4-d]thieno[3,2-b]azepin-6(1H)-yl)carbonyl]phenyl]-2-chloro-4-fluorobenzamide] |  | 15.3 | 535 | 2
Cc1ccc(F)cc1C(=O)Nc1ccc(C(=O)N2CCc3c[nH]nc3-c3ncccc32)cc1 [Example 367, N-[4-[4(4,5-Dihydropyrazolo[3,4-d]pyrido[3,2-b]azepin-6(1H)-yl)carbonyl]phenyl]-5-fluoro-2-methylbenzamide] | 0.31 | 10 | 627 | 
